Values quoted from earlier work as cited in US20210319872A1, “DRUG AND DEVICE COMBINATION PRODUCTS WITH IMPROVED SAFETY AND EFFICACY PROFILES” (priority 2016, published 2021).

Conditions: in vivo

Q: For `O=C1Nc2ccc(Cl)cc2C(c2ccccc2Cl)=NC1O` (stereo not shown) [Lorazepam (Ativan)], which Acidosis is on record?
A: The Acidosis was “Endocrine metabolic: Acidosis (less than 1%)”.

Q: And the Asthenia?
A: Its Asthenia is “Neurologic: Asthenia (4.2%), Dizziness (6.9%), Sedated (15.9%),”.

Q: What about the “Common side effects, listed without incidence” value of the same molecule?
A: Its value is “Psychiatric: Depression”.

Q: What about the Dizziness of the same molecule?
A: The Dizziness was “Neurologic: Asthenia (4.2%), Dizziness (6.9%), Sedated (15.9%),”.

Q: What about the Sedated of the same molecule?
A: The Sedated was “Neurologic: Asthenia (4.2%), Dizziness (6.9%), Sedated (15.9%),”.

Q: What about the “Serious side effects, listed without incidence or only as rare” value of the same molecule?
A: Its value is “Psychiatric: Delirium”.

Q: And the Unsteadiness present?
A: The Unsteadiness present was “Unsteadiness present (3.4%)”.

Q: Which Ataxia does the source give for `NCC1(CC(=O)O)CCCCC1` [Gabapentin (Neurontin)] here?
A: The Ataxia was “Neurologic: Ataxia (Adult, 3%; adult and adolescent, 13%),”.

Q: And the “Disorder of form of thought” value?
A: Its value is “Psychiatric: Disorder of form of thought (Pediatric, 1.7%),”.

Q: And the Disturbance in thinking?
A: The Disturbance in thinking was “Disturbance in thinking (2% to 3%), Hostile behavior (Pediatric,”.

Q: And the Fatigue?
A: Its Fatigue is “Other: Fatigue (3% to 11%), Fever (Pediatric, 10%)”.

Q: And the Fever?
A: Its Fever is “Other: Fatigue (3% to 11%), Fever (Pediatric, 10%)”.

Q: And the Hostile behavior?
A: The Hostile behavior was 5.2%), Hyperactive behavior (Pediatric, 4.7%), Mood swings.

Q: And the Hyperactive behavior?
A: The Hyperactive behavior was 5.2%), Hyperactive behavior (Pediatric, 4.7%), Mood swings.

Q: And the Mood swings?
A: Its Mood swings is “(Pediatric, 6%), Suicidal thoughts”.

Q: And the Nausea?
A: The Nausea was “Gastrointestinal: Nausea (greater than 1%), Vomiting (3.3%)”.

Q: What about the Nystagmus of the same molecule?
A: Its Nystagmus is “Nystagmus (Adult and adolescent, 8%)”.

Q: What about the Peripheral edema of the same molecule?
A: Its Peripheral edema is “Cardiovascular: Peripheral edema (1.7% to 8.3%)”.

Q: And the “Serious side effect, Dermatologic” value?
A: The value was “Dermatologic: Stevens-Johnson syndrome”.

Q: And the “Serious side effect, Immunologic” value?
A: Its value is “Immunologic: Drug hypersensitivity syndrome”.

Q: And the “Serious side effect, Psychiatric” value?
A: The value was “(Pediatric, 6%), Suicidal thoughts”.

Q: And the Viral disease?
A: The Viral disease was “Immunologic: Viral disease (10.9%)”.

Q: And the Vomiting?
A: Its Vomiting is “Gastrointestinal: Nausea (greater than 1%), Vomiting (3.3%)”.

Q: With `CN(C)CCCC1(c2ccc(F)cc2)OCc2cc(C#N)ccc21` (stereo not shown) [Citalopram (Celexa)] as the molecule, how does the Agitation read?
A: Its Agitation is “Psychiatric: Agitation (3% to 10%)”.

Q: What about the Cerebrovascular accident of the same molecule?
A: The Cerebrovascular accident was “Neurologic: Cerebrovascular accident (0.1% to less than 1%)”.

Q: What about the Constipation of the same molecule?
A: The Constipation was “Gastrointestinal: Constipation (13%), Diarrhea (8%), Nausea (20%”.

Q: And the Diaphoresis?
A: The Diaphoresis was “Dermatologic: Diaphoresis (5% to 18%)”.

Q: And the Diarrhea?
A: The Diarrhea was “Gastrointestinal: Constipation (13%), Diarrhea (8%), Nausea (20%”.

Q: What about the Disorder of ejaculation of the same molecule?
A: The Disorder of ejaculation was “Reproductive: Disorder of ejaculation (6.1%)”.

Q: And the Dizziness?
A: The Dizziness was “Neurologic: Dizziness (14%), Headache (18%), Insomnia (15%),”.

Q: What about the Fatigue of the same molecule?
A: Its Fatigue is “Other: Fatigue (5%)”.

Q: What about the Headache of the same molecule?
A: The Headache was “Neurologic: Dizziness (14%), Headache (18%), Insomnia (15%),”.

Q: What about the Insomnia of the same molecule?
A: The Insomnia was “Neurologic: Dizziness (14%), Headache (18%), Insomnia (15%),”.

Q: What about the Myocardial infarction of the same molecule?
A: Its Myocardial infarction is “Cardiovascular: Myocardial infarction (0.1% to 1%), Prolonged QT”.

Q: And the Nausea?
A: Its Nausea is “Gastrointestinal: Constipation (13%), Diarrhea (8%), Nausea (20%”.

Q: What about the “Prolonged QT interval” value of the same molecule?
A: The value was “interval (0.5% to 1.9%), Torsades de pointes”.

Q: What about the Sedated of the same molecule?
A: The Sedated was “Sedated (15%), Somnolence (18%), Tremor (8% to 16%)”.

Q: What about the Somnolence of the same molecule?
A: Its Somnolence is “Sedated (15%), Somnolence (18%), Tremor (8% to 16%)”.

Q: And the Tremor?
A: Its Tremor is “Sedated (15%), Somnolence (18%), Tremor (8% to 16%)”.

Q: What about the Vomiting of the same molecule?
A: The Vomiting was “to 21%), Vomiting (4% to 20%), Xerostomia (17% to 20%)”.

Q: What about the Xerostomia of the same molecule?
A: Its Xerostomia is “to 21%), Vomiting (4% to 20%), Xerostomia (17% to 20%)”.

Q: With `CCC1(CCC(C)C)C(=O)NC(=O)NC1=O` [Amytal (amobarbital)] as the molecule, how does the Agranulocytosis read?
A: The Agranulocytosis was “Hematologic: Agranulocytosis (rare), Megaloblastic anemia, With”.

Q: And the “Common side effect, Neurologic” value?
A: The value was “Neurologic: Confusion, Dizziness, Headache, Somnolence”.

Q: And the “Injury of liver, With prolonged use” value?
A: The value was “Hepatic: Injury of liver, With prolonged use (rare)”.

Q: What about the “Megaloblastic anemia, With prolonged use” value of the same molecule?
A: The value was “prolonged use (rare)”.

Q: And the “Serious side effect, Respiratory” value?
A: The value was “Respiratory: Apnea, Hypoventilation”.

Q: And the Stevens-Johnson syndrome?
A: Its Stevens-Johnson syndrome is “Dermatologic: Stevens-Johnson syndrome (rare)”.

Q: For `C[C@H](O)[C@H](O)[C@H]1CNc2[nH]c(N)nc(=O)c2N1.Cl.Cl` [Kuvan], which Cough is on record?
A: Its Cough is “Respiratory: Cough (4% or more), Nasal congestion (4% or more),”.

Q: What about the Diarrhea of the same molecule?
A: The Diarrhea was “Gastrointestinal: Diarrhea (4% or more), Vomiting (4% or more)”.

Q: What about the Headache of the same molecule?
A: The Headache was “Neurologic: Headache (4% or greater)”.

Q: And the Nasal congestion?
A: Its Nasal congestion is “Respiratory: Cough (4% or more), Nasal congestion (4% or more),”.

Q: What about the Nasal discharge of the same molecule?
A: The Nasal discharge was “Nasal discharge (4% or more), Pain in throat (4% or more), Upper”.

Q: What about the Pain in throat of the same molecule?
A: The Pain in throat was “Nasal discharge (4% or more), Pain in throat (4% or more), Upper”.

Q: And the “Serious side effect, Cardiovascular” value?
A: Its value is “Cardiovascular: Myocardial infarction”.

Q: What about the “Serious side effect, Gastrointestinal” value of the same molecule?
A: The value was “Gastrointestinal: Gastrointestinal hemorrhage”.

Q: What about the “Serious side effect, Hematologic” value of the same molecule?
A: Its value is “Hematologic: Hemorrhage, Post-procedural”.

Q: And the “Serious side effect, Neurologic” value?
A: The value was “Neurologic: Seizure”.

Q: And the “Serious side effect, Respiratory” value?
A: Its value is “Respiratory: Respiratory failure”.

Q: And the Upper respiratory infection?
A: The Upper respiratory infection was “respiratory infection (17%)”.

Q: What about the Vomiting of the same molecule?
A: Its Vomiting is “Gastrointestinal: Diarrhea (4% or more), Vomiting (4% or more)”.

Q: For `CCN(C(C)=O)c1cccc(-c2ccnc3c(C#N)cnn23)c1` [Sonata (zaleplon)], which Anaphylaxis is on record?
A: Its Anaphylaxis is “Immunologic: Anaphylaxis (rare)”.

Q: And the Angioedema?
A: The Angioedema was “Other: Angioedema (rare)”.

Q: And the Depression?
A: Its Depression is “Depression (at least 1%), Suicidal behavior, Suicidal thoughts”.

Q: And the Dizziness?
A: Its Dizziness is “Neurologic: Dizziness (7% to 9%), Headache (30% to 42%)”.

Q: What about the Drug withdrawal seizure of the same molecule?
A: Its Drug withdrawal seizure is “Neurologic: Drug withdrawal seizure (rare)”.

Q: And the Headache?
A: The Headache was “Neurologic: Dizziness (7% to 9%), Headache (30% to 42%)”.

Q: Which “Drowsiness or Sedation” value does the source give for `CN1CC[C@]23c4c5ccc(O)c4O[C@H]2[C@@H](O)C=C[C@H]3[C@H]1C5` [morphine, reference compound] here?
A: Its value is “severe sedation and drowsiness”.

Q: With `CC(C)(C)NCC(O)COc1cccc2c1CCC(=O)N2` (stereo not shown) [Carteolol (Cartrol)] as the molecule, how does the Asthenia read?
A: The Asthenia was “Neurologic: Asthenia (7%.), Dizziness (4% to 15%.), Headache”.

Q: What about the “Burning sensation in eye” value of the same molecule?
A: Its value is “Ophthalmic: Blurred vision, Burning sensation in eye (25%),”.

Q: What about the Conjunctival edema of the same molecule?
A: The Conjunctival edema was “Conjunctival edema (25%), Conjunctival hyperemia (25%),”.

Q: What about the Conjunctival hyperemia of the same molecule?
A: The Conjunctival hyperemia was “Conjunctival edema (25%), Conjunctival hyperemia (25%),”.

Q: What about the Dizziness of the same molecule?
A: Its Dizziness is “Neurologic: Asthenia (7%.), Dizziness (4% to 15%.), Headache”.

Q: And the Epiphora?
A: Its Epiphora is “Epiphora (25%), Eye irritation (25%)”.

Q: And the Eye irritation?
A: Its Eye irritation is “Epiphora (25%), Eye irritation (25%)”.

Q: And the Headache?
A: The Headache was “(4% to 17%.), Insomnia (2% to 12%.)”.

Q: And the Insomnia?
A: The Insomnia was “(4% to 17%.), Insomnia (2% to 12%.)”.

Q: What does the source list for `COCCOC(=O)C1=C(C)NC(C)=C(C(=O)OC(C)C)C1c1cccc([N+](=O)[O-])c1` (stereo not shown) [Nimodipine (Nimotop)]?
A: Congestive heart failure: Cardiovascular: Congestive heart failure (less than 1%); Diarrhea: Gastrointestinal: Diarrhea (up to 4.2%), Nausea (0.6% to 1.4%); Disseminated intravascular coagulation: (less than 1%), Hematoma (less than 1%); Gastrointestinal hemorrhage: Gastrointestinal: Gastrointestinal hemorrhage (less than 1%); Headache: Neurologic: Headache (up to 4.1%); Hematoma: (less than 1%), Hematoma (less than 1%); Hypotension: Cardiovascular: Hypotension (up to 8.1%); Nausea: Gastrointestinal: Diarrhea (up to 4.2%), Nausea (0.6% to 1.4%); Serious side effects, listed without incidence or only as rare: Hematologic: Bleeding, Disseminated intravascular coagulation

Q: What does the source list for `Cl.O=C1[C@@H]2[C@H]3CC[C@H](C3)[C@@H]2C(=O)N1C[C@@H]1CCCC[C@H]1CN1CCN(c2nsc3ccccc23)CC1` [Latuda]?
A: Akathisia: Neurologic: Akathisia (5.6% to 22%), Extrapyramidal disease; Anxiety: Psychiatric: Anxiety (4% to 5%); Cerebrovascular accident: Neurologic: Cerebrovascular accident (0.1% to 1%), Seizure (less; Diarrhea: Gastrointestinal: Diarrhea (3% to 5%), Nausea (10% to 17%),; Nausea: Gastrointestinal: Diarrhea (3% to 5%), Nausea (10% to 17%),; Orthostatic hypotension: Cardiovascular: Orthostatic hypotension (0.3% to 2.1%), Syncope; Serious side effect, Hematologic: Hematologic: Agranulocytosis; Serious side effect, Other: Other: Neuroleptic malignant syndrome; Serum creatinine raised: Renal: Serum creatinine raised (2% to 4%); Suicidal thoughts: Psychiatric: Suicidal thoughts (0.4% to 1.1%); Syncope: (0.1%); Vomiting: Vomiting (2% to 8%)

Q: Which Abdominal pain does the source give for `Nc1nnc(-c2cccc(Cl)c2Cl)c(N)n1` [Lamotrigine (Lamictal)] here?
A: Its Abdominal pain is “Gastrointestinal: Abdominal pain (immediate-release, 5% to 10%),”.

Q: What about the Anemia of the same molecule?
A: Its Anemia is “Hematologic: Anemia (immediate release, less than 0.1%),”.

Q: And the Angioedema?
A: Its Angioedema is “Other: Angioedema (less than 0.1%), Neuroleptic malignant”.

Q: And the Ataxia?
A: The Ataxia was “release, 6%), Ataxia (immediate-release, 2% to 11%), Coordination”.

Q: What about the Coordination problem of the same molecule?
A: The Coordination problem was “problem (immediate-release, 6% to 7%; extended-release, 3%),”.

Q: And the Depression?
A: Its Depression is 3%), Depression (immediate-release, 4%; extended-release, 3%).

Q: What about the Diarrhea of the same molecule?
A: Its Diarrhea is “Diarrhea (immediate-release, 6% to 11%; extended-release, 5%),”.

Q: What about the Dizziness of the same molecule?
A: Its Dizziness is “Dizziness (immediate-release, 7% to 54%; extended release, 14%),”.

Q: What about the Dysmenorrhea of the same molecule?
A: Its Dysmenorrhea is “Reproductive: Dysmenorrhea (immediate-release, 5% to 7%)”.

Q: What about the Headache of the same molecule?
A: Its Headache is “Headache (immediate-release, 29%), Insomnia (immediate-release,”.

Q: And the Indigestion?
A: The Indigestion was “Indigestion (immediate-release, 2% to 7%), Nausea (immediate-”.

Q: And the Insomnia?
A: Its Insomnia is 5% to 10%), Somnolence (immediate-release, 9% to 17%;.

Q: And the Nausea?
A: The Nausea was “release, 7% to 25%; extended-release, 7%), Vomiting (immediate-”.

Q: And the Pain?
A: The Pain was “Other: Pain (immediate-release, 5%)”.

Q: And the Rash?
A: Its Rash is “Dermatologic: Rash (7% to 14%)”.

Q: And the “Rash, Serious” value?
A: Its value is “Serious (0.08% to 0.8%), Stevens-Johnson syndrome (0.08% to”.

Q: And the Rhinitis?
A: The Rhinitis was “Respiratory: Rhinitis (immediate-release, 7% to 14%)”.

Q: What about the Vomiting of the same molecule?
A: Its Vomiting is “release, 5% to 20%; extended-release, 6%))”.
